Consider 27 compounds from patent US20170216252A1, “ANTI-BACTERIAL PYRUVATE KINASE MODULATOR COMPOUNDS, COMPOSITIONS, USES AND METHODS” (SIMON FRASER UNIVERSITY, priority 2014, published 2017).

pIC50: −log10 of the molar value. Values after ≈ are worked out from the molar mass of the structure shown. Where two headings read alike, the source gives them in different places. Some results are limits rather than exact numbers.

The test system of one test is S. aureus ATCC 29213. Briefly: In vitro susceptibility, broth microdilution MIC. Format: cell-based, Staphylococcus aureus. As to conditions: Staphylococcus aureus, ATCC29213, Tables 1-6 and text; minimum concentration to give >98% inhibition of growth; read-out: MIC. The procedure:
The antimicrobial activities of PK inhibitor candidates were determined using the 96-well microtiter standard 2-fold serial broth microdilution method as described by CLSI (formerly NCCLS) with the various gram-positive and gram-negative bacteria species mentioned above. Bacteria from a single colony were grown, overnight in either BHI Broth (VRE), mueller hinton broth (S. aureus 29213; MRSA USA400) or L-broth (E. coli, P. aeruginosa, S. typhimuriu, K. Pneumonia and A. baumannii). […] Culture plates were incubated for 18-24 h at 37° C., and optical density at 600 nm (OD600) was measured using a Benchmark Plus™ microplate spectrophotometer (Bio-Rad™). The absorbance control values for the series containing CAMHB and inhibitor were subtracted as background from the corresponding infected wells. The MIC was defined as the lowest concentration of test compound leading to complete inhibition of cell growth in relationship to compound-free control wells as determined by optical density. […] All assays were run in triplicate (Tables 1-6) or duplicate. Experiments were replicated at least twice to verify reproducibility using the above conditions.
(In general: In broth dilution the organism is exposed to a series of concentrations in liquid medium.)

Another test concerns the target T1, MRSA PK (Staphylococcus aureus, UniProt Q6GG09).
T1 construct: His tag (pET-28a(+) vector) (N); made in house; host or cells: E. coli BL-21 (DE3)
Description: MRSA PK activity, continuous LDH-coupled assay. It counts as biochemical, S. aureus (MRSA strain Sanger 252). The note with it: for inhibition at 1 µM / inhibition at 10 µM: read-out: % inhibition at the highest concentration tested (IC50). The text has this:
Genomic DNA of MRSA strain Sanger 252 extracted using DNeasy Tissue Kit™ (Qiagen™) was used as a template to generate the His-tagged MRSA PK. Human cDNA from MCF-7 breast cancer cell line (courtesy of Dr. J Wong, BC Cancer Research Center (Vancouver, Canada) was used as a template to generate the full-length human M2 PK enzyme. The following primer sets were used creating appropriate restriction sites (NdeI and XhoI sites underlined): For cloning of MRSA PK: M27F 5′-[…]-3′ and M27R 5′-[…]-3′, for cloning of human M2 PK isoform: hM2F 5′-[…]-3′ and hM2R 5′-[…]-3′. The resulting PCR fragments for each construct were cloned into the NdeI and XhoI unique sites of the bacterial expression vector pET-28a (+) (Novagen™). […] The sequence and the correct reading frame of all constructs were verified by sequencing. Human M1, R and L PK constructs in pET-28-a(+) vectors (courtesy of Dr. L. Cantley, Harvard Medical, School (Boston, USA)) were used to generate relevant recombinant His-tagged human PK isoforms.
MRSA and human constructs in pET-28a(+) were used to express relevant recombinant PK proteins in E. coli BL-21 (DE3). The proteins were expressed and purified using Ni-NTA agarose (Qiagen™) according to the manufacturer's protocol. Briefly, cells were grown to an absorbance of 0.4-0.5 at 600 nm in 2×YT medium, then induced with 0.1 mM IPTG for 3 h at 20° C. Cells were lysed by sonication on ice (3×10-s bursts with a 30-s recovery between bursts) in lysis buffer (0.2 mg/ml lysozyme, 50 mM Tris pH 7.5, 10 mM MgCl2, 200 mM NaCl, 100 mM KCl, 10% glycerol, 10 mM imidazole, 0.5% NP-40 and 1 mM DTT containing Complete™ protease inhibitor). Cell lysates were cleared by centrifugation (18,000×g in a Beckman™ JA-20 rotor) for 20 min at 4° C. and PK isoforms were purified by batch binding to Ni-NTA resin. The resins were then packed in columns (1×2 cm) and washed with 400 column volumes lysis buffer containing 30 mM imidazole. His-tagged PK isoforms were eluted with the same buffer containing 300 mM imidazole. The proteins were dialyzed overnight at 4° C. against 2000 volumes of ice-cold 30 mM Tris pH 7.5, 25 mM KCl, 5 mM MgCl2, 10% glycerol and 1 mM DTT to remove imidazole. All purification steps were done at 4° C.; enzymes were flash-frozen and stored at −70° C. […] Purity and physical integrity of proteins were assessed using SDS-polyacrylamide gel electrophoresis (SDS-PAGE) followed by coomassie blue staining. Protein concentration was estimated by Bradford assay (Bio-Rad Protein Assay™) using bovine serum albumin as a standard.
Candidate MRSA PK inhibitors were assayed for their ability to inhibit enzymatic activities of MRSA and human PKs. PK activity was determined using a continuous assay coupled to lactate dehydrogenase (LDH) in which the change in absorbance at 340 nm owing to oxidation of NADH was measured using a Benchmark Plus™ microplate spectrophotometer (Bio-Rad Laboratories, Hercules, Calif.). […] Reactions were initiated by the addition of 15 nM of one of the PK enzymes. PK activity proportional to the rate of change at 340 nm was expressed as specific activity (μmol/min/mg), which is defined as the amount of PK that catalyzes the formation of one micromole of either product per minute. Inhibitors were dissolved in DMSO with the final concentration of the solvent never exceeding 1% of the assay volume. IC50 values were calculated by curve fitting on a four-parameter dose-response model with variable slope using Graphpad Prism 5.0™ (GraphPad™ Software Inc., La Jolla, Calif.). […] Reactions were performed at 30° C. for up to 5 min. All values determined represent at least two measurements, in triplicate (Tables 1-6) or duplicate unless mentioned otherwise.

Setting [1] is: Tables 1-6, 2 mM ADP, 10 mM PEP, 15 nM PK, read-out: IC50.

T1 sequence (Q6GG09 whole entry): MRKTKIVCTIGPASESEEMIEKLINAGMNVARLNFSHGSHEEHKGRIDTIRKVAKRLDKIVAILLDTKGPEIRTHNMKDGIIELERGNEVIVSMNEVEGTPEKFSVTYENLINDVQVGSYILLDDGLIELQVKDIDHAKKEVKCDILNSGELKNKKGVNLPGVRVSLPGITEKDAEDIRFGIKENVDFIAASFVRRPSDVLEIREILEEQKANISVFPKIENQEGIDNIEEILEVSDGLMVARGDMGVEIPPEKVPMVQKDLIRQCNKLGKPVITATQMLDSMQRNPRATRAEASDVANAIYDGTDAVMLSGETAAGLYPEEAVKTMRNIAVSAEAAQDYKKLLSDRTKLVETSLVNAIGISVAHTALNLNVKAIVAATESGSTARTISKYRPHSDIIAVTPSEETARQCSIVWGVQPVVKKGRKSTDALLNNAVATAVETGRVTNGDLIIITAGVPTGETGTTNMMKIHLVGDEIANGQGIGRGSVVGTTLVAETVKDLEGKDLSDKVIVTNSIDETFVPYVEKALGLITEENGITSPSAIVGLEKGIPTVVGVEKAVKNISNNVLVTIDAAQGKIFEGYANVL

As for `Brc1ccc2[nH]c(-c3cc4cc(Br)c(Br)cc4[nH]3)cc2c1` [Compound 10m, 5,5′,6-Tribromo-1H,1′H-2,2′-biindole], in the test on S. aureus ATCC 29213, the MIC was found to be 1 µg/mL (≈ 2.13 µM). The pIC50 on MRSA PK (setting [1]) is 8.80. The matching figures for `Brc1ccc2cc(C#Cc3cc4ccc(Br)cc4[nH]3)[nH]c2c1` [Compound 25b, 1,2-Bis(6-bromo-1H-indol-2-yl)ethyne]: over 64 µg/mL and 8.62.

For the compound `Cn1c(C#Cc2cc3ccc(Br)cc3[nH]2)cc2ccc(Br)cc21` [Compound 26a, 6-bromo-2-((6-bromo-1H-indol-2-yl)ethynyl)-1-methyl-1H-indole], the minimum inhibitory concentration (MIC) in the test with S. aureus ATCC 29213 was over 64 µg/mL. On MRSA PK (setting [1]), the pIC50 is 7.86. As to `Brc1ccc2cc(/C=C/c3cc4ccc(Br)cc4[nH]3)[nH]c2c1` [Compound 27b, (E)-1,2-bis(6-bromo-1H-indol-2-yl)ethane], the MIC with S. aureus ATCC 29213 was over 64 µg/mL. Further, the pIC50 on MRSA PK (setting [1]) was 8.41. `Brc1ccc2[nH]c(/C=C/c3cc4ccc(Br)cc4[nH]3)cc2c1` [Compound 27c, (E)-6-bromo-2-(2-(5-bromo-1H-indol-2-yl)vinyl)-1H-indole]: the MIC in the test on S. aureus ATCC 29213 is over 64 µg/mL. Further, on MRSA PK (setting [1]), the pIC50 is 8.39. As to `Brc1ccc2cc(-c3ccc(-c4cc5ccc(Br)cc5[nH]4)cc3)[nH]c2c1` [Compound 33a, 1,4-bis(6-bromo-1H-indol-2-yl)benzene], the MIC with S. aureus ATCC 29213 is over 64 µg/mL. Further, the inhibition at 1 µM at MRSA PK was found to be 54%. Taken in the same sequence, the figures for `Brc1ccc2cc(-c3ccc(-c4cc5ccc(Br)cc5[nH]4)s3)[nH]c2c1` [Compound 33b, 2,5-bis(6-bromo-1H-indol-2-yl)thiophene] were over 64 µg/mL and 28%. Take `Brc1ccc2cc(/C=C/c3ccccc3)[nH]c2c1` [Compound 36a, (E)-6-bromo-2-styryl-1H-indole]: the MIC in the test with S. aureus ATCC 29213 is over 64 µg/mL. Moreover, the pIC50 on MRSA PK is 7.60. `Brc1ccc(/C=C/c2cc3ccc(Br)cc3[nH]2)cc1` [Compound 36b, (E)-6-bromo-2-(4-bromostyryl)-1H-indole]: the minimum inhibitory concentration (MIC) with S. aureus ATCC 29213 is over 64 µg/mL. For the same compound, the pIC50 at MRSA PK was 9.00. For the compound `CC(=O)c1c(/C=C/c2ccccc2)[nH]c2cc(Br)ccc12` [Compound 38a, (E)-1-(6-bromo-2-styryl-1H-indol-3-yl)ethanone], in the test on S. aureus ATCC 29213, the minimum inhibitory concentration (MIC) was over 64 µg/mL. In addition, at MRSA PK, the pIC50 was under 4.70.

For `CC(=O)c1c(CCc2ccccc2)[nH]c2cc(Br)ccc12` [Compound 39a, 1-(6-bromo-2-phenethyl-1H-indol-3-yl)ethanone], the MIC with S. aureus ATCC 29213 was over 64 µg/mL. On MRSA PK, the pIC50 is 6.22. The matching figures for `CC(=O)c1c(CCc2ccc(Cl)cc2)[nH]c2cc(Br)ccc12` [Compound 39b, 1-(6-bromo-2-(4-chlorophenethyl)-1H-indol-3-yl)ethanone]: 4 µg/mL (≈ 10.6 µM) and 7.55.

For `CC(C)C(=O)c1c(CCc2ccc(Cl)cc2)[nH]c2cc(Br)ccc12` [Compound 39c, 1-(6-bromo-2-(4-chlorophenethyl)-1H-indol-3-yl)-2-methylpropan-1-one], the MIC in the test on S. aureus ATCC 29213 was 4 µg/mL (≈ 9.88 µM). In addition, the pIC50 at MRSA PK is 7.55. Regarding `COC(=O)c1c(-c2cc3cc(Br)c(Br)cc3[nH]2)[nH]c2cc(Br)c(Br)cc12` [Compound 39d], the minimum inhibitory concentration (MIC) in the test on S. aureus ATCC 29213 turned out to be 4 µg/mL (≈ 6.6 µM). For the same compound, at MRSA PK, the pIC50 is 8.68.

For the compound `O=C(c1cc2ccc(Br)cc2[nH]1)c1cc2ccccc2cc1O` [Compound 42, (6-Bromo-1H-indol-2-yl)(3-hydroxynaphthalen-2-yl)methanone], the MIC with S. aureus ATCC 29213 was over 64 µg/mL. Besides, at MRSA PK, the inhibition at 10 µM turned out to be 72%. Taken in the same sequence, the figures for `Brc1ccc2[nH]c(-c3ccc(-c4cc5cc(Br)ccc5[nH]4)s3)cc2c1` [Compound 43, 2,5-bis(5-Bromo-1H-indol-2-yl)thiophene] were over 64 µg/mL and 50%.

For the compound `C(=C\c1cc2ccccc2[nH]1)/c1cc2ccccc2[nH]1` [Compound 44], in the test on S. aureus ATCC 29213, the MIC was over 64 µg/mL. For the same compound, on MRSA PK, the inhibition at 10 µM stood at 63%. On to `Brc1ccc2[nH]c(C#Cc3cc4cc(Br)ccc4[nH]3)cc2c1` [Compound 45, 1,2-bis(5-Bromo-1H-indol-2-yl)ethyne], for which the MIC in the test on S. aureus ATCC 29213 was over 64 µg/mL. On MRSA PK, the inhibition at 10 µM was found to be 60%. Take `c1ccc2[nH]c(-c3ccc(-c4cc5ccccc5[nH]4)cc3)cc2c1` [Compound 46]: the MIC with S. aureus ATCC 29213 is over 16 µg/mL. Further, on MRSA PK, the inhibition at 10 µM stood at 52%. As to `Brc1ccc2[nH]c(-c3ccc(-c4cc5ccc(Br)cc5[nH]4)s3)cc2c1` [Compound 47, 6-Bromo-2-(5-(5-bromo-1H-indol-2-yl)thiophen-2-yl)-1H-indole], the MIC with S. aureus ATCC 29213 was over 64 µg/mL. Besides, the inhibition at 10 µM at MRSA PK turned out to be 52%. As for `COc1ccc(C#Cc2cc3ccc(Br)cc3[nH]2)cn1` [Compound 144, 6-Bromo-2-((6-methoxypyridin-3-yl)ethynyl)-1H-indole], the pIC50 on MRSA PK is under 6.00. Still for that read-out and setting: then `COC(=O)c1c(C#Cc2cc3cc(Cl)ccc3[nH]2)[nH]c2cc(Br)ccc12` [Compound 145, Methyl 6-bromo-2-((5-chloro-1H-indol-2-yl)ethynyl)-1H-indole-3-carboxylate], with under 6.00; and `COc1ccc(/C=C/c2[nH]c3cc(Br)ccc3c2C(=O)O)nc1` [Compound 151, (E)-6-Bromo-2-(2-(5-methoxypyridin-2-yl)vinyl)-1H-indole-3-carboxylic acid], with under 6.00. On the same count and under the same terms, in the case of `Cn1c(-c2cc3ccccc3s2)nc2ccc(Br)cc21` [Compound 155, 2-(Benzo[b]thiophen-2-yl)-6-bromo-1-methyl-1H-benzo[d]imidazole] it was 6.00 to 7.00; in that of `Cn1c(-c2cc3ccccc3s2)nc2cc(Br)ccc21` [Compound 156, 2-(Benzo[b]thiophen-2-yl)-5-bromo-1-methyl-1H-benzo[d]imidazole], under 6.00. On to `COc1ccc(/C=C/c2[nH]c3cc(Br)ccc3c2C(=O)C(F)(F)F)nc1` [Compound 172, (E)-1-(6-Bromo-2-(2-(5-methoxypyridin-2-yl)vinyl)-1H-indol-3-yl)-2,2,2-trifluoroethanone], for which, at MRSA PK, the pIC50 is under 6.00.

The compound `O=C(c1c(/C=C/c2cn3ccccc3n2)[nH]c2cc(Br)ccc12)C(F)(F)F` [Compound 176, (E)-1-(6-Bromo-2-(2-(imidazo[1,2-a]pyridin-2-yl)vinyl)-1H-indol-3-yl)-2,2,2-trifluoroethanone] had a negative logarithm of the IC50 (pIC50) against MRSA PK of under 6.00.

A word on the MIC: it is the least concentration at which growth counts as inhibited. As a reminder, the pIC50 is −log10 of the IC50, conventionally taken in molar units.
